Laboratory results as given in US20070185060A1, “Boronic acid thrombin inhibitors” (TRIGEN LIMITED, priority 2004, published 2007).
Each block holds one molecule with its values, some of them ahead of it.

How the values were obtained:
[1] = Stability under conditions of HPLC purity determination; format: physicochemical; conditions: sample preparation for HPLC
[2] = Solubility of TRI 50c monosodium salt at different pH values; format: physicochemical
Procedure: It may be desirable to make aqueous solutions of boronic acid drugs for administering them. […] However, a solution with a pH of 9.5 may be unacceptable or undesirable. Accordingly, a pharmaceutically acceptable organic acid may be included in the particulate formulation in an amount selected to reduce the pH to a value at which the solution is more acceptable but at which a solution of drinkable quantity (e.g. about 50 ml to about 150 ml) may be formed by reconstituting the particulate formulation. As the organic acid may be mentioned citric acid, tartaric acid or malic acid, for example. In many instances, citric acid is chosen.
In a first series of experiments, this amount of the salt was dissolved in 50 ml water to form a solution of approximately pH 9.5. Dilute aqueous HCl was added to determine how much the pH could be reduced before precipitation occurred.
In a second series of experiments, the same amount of the salt was dissolved in 150 ml water, and citric acid was added. […] Since acid solutions tend to be more palatable than alkaline ones, and citric acid is a common flavouring agent, this behaviour of the salt is highly beneficial. […] In general, it is contemplated that the boronate will be formulated to form a reconstituted solution having a pH of from 4 to 8, e.g. 4 to 7, optionally 5 to 6.

[3] = system: Trypsin; assay: Trypsin inhibition, chromogenic substrate (Method C); format: biochemical; conditions: Trypsin versus thrombin
Procedure: (§1) 50 μl Trypsin (20 ng/ml in assay buffer) and 20 μl vehicle or compound solution were added to 110 μl assay buffer (100 mM Na orthophosphate (80% Na2HPO4 and 20% NaH2PO4), 200 mM NaCl, 0.5% PEG 6000, 0.02% Na azide, pH 7.5) and incubated for 5 minutes at 37° C.

[4] = system: T1, Trypsin; assay: as above; format: biochemical; conditions: Trypsin
T1 construct: IC50; other: Trypsin; Ki
Procedure: as §1

[5] = target: thrombin (Homo sapiens, UniProt P00734); assay: Thrombin inhibition, chromogenic substrate (Method A); format: biochemical
Procedure: 50 μl thrombin (33.3 ng/ml in assay buffer) and 20 μl vehicle or compound solution were added to 110 μl assay buffer (100 mM Na orthophosphate (80% Na2HPO4 and 20% NaH2PO4), 200 mM NaCl, 0.5% PEG 6000, 0.02% Na azide, pH 7.5) and incubated for 5 minutes at 37° C.

[6] = target: Plasmin (Homo sapiens, UniProt P00747); assay: Plasmin inhibition, chromogenic substrate (Method B); format: biochemical
Plasmin, sequence (P00747 581-810 limits assumed, species assumed): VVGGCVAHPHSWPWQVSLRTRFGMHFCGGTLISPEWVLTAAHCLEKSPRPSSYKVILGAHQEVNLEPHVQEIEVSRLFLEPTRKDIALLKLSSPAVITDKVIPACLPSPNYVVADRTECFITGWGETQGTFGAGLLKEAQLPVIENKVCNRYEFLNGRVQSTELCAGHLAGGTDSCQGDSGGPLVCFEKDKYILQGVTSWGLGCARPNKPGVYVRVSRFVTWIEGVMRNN
Plasmin, sequence (P00747 97-580 partner limits assumed, species assumed): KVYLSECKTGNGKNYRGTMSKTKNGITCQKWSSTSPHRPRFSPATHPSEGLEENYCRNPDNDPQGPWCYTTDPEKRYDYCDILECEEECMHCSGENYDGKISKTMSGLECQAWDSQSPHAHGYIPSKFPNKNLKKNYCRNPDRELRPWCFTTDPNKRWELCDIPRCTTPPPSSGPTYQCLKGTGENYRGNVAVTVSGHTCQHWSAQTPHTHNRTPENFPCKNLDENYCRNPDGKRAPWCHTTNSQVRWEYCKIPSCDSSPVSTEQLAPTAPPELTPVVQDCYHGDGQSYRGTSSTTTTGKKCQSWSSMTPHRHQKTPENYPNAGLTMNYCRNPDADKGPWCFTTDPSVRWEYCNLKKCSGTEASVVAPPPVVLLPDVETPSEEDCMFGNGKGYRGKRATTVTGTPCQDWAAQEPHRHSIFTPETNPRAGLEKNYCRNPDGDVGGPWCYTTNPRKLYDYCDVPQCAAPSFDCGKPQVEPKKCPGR
Procedure: 50 μl Plasmin (75 ng/ml in assay buffer) and 20 μl vehicle or compound solution were added to 110 μl assay buffer (100 mM Na orthophosphate (80% Na2HPO4 and 20% NaH2PO4), 200 mM NaCl, 0.5% PEG 6000, 0.02% Na azide, pH 7.5) and incubated for 5 minutes at 37° C.

stability under HPLC purity determination conditions [1]: not stable
SMILES: COCCCC(NC(=O)C1CCCN1C(=O)C(Cc1ccccc1)NC(=O)OCc1ccccc1)B1OCCNCCO1 (stereo not drawn) [TRI 50d]

concentration of boronate salt solution that can be formed ([2]; aqueous solution at a pH of about 9.5): about 600 mg/ml
pH below which the salt tended to precipitate ([2]; salt equivalent to 600 mg TRI 50c in 50 ml water, dilute aqueous HCl added): below 9
pH to which solution could be reduced before precipitation occurred ([2]; salt equivalent to 600 mg TRI 50c in 150 ml water, citric acid added): 3.7-3.8
SMILES: COCCC[C@H](NC(=O)[C@@H]1CCCN1C(=O)[C@@H](Cc1ccccc1)NC(=O)OCc1ccccc1)B(O)O.[Na+] [TRI 50c monosodium salt, Cbz-(R)-Phe-(S)-Pro-(R)-Mpg-B(OH)2 monosodium salt]

SMILES: COCCC[C@H](NC(=O)[C@@H]1CCCN1C(=O)[C@@H](Cc1ccc(F)cc1)NC(=O)OCc1ccccc1)B(O)O [TRI 50f, Cbz-4-F-Phe-Pro-boroMpg-OH]
Selectivity [3]: >100
IC50 [4]: > 10 µM
Ki [4]: > 5 µM
IC50 [5]: < 0.1 µM
Ki [5]: < 0.075 µM
IC50 ([6]; Plasmin): > 100 µM
Ki ([6]; Plasmin): > 100 µM
Selectivity ([6]; Plasmin versus thrombin): >1000
